Each block holds one compound with its values, some of them ahead of it.
Experiments:
[1] = target: T1, Mitogen-activated protein kinase kinase kinase 11 (Homo sapiens, UniProt Q16584); experiment: Inhibition of MLK3 (unknown origin) assessed as residual enzyme activity at 1 uM by [33P]-ATP filter binding kinase assay relative to control
[2] = target: Serine/threonine-protein kinase DCLK3 (Homo sapiens, UniProt Q9C098); experiment: Binding affinity to wild-type human partial length DCAMKL3 (E140 to V628 residues) expressed in bacterial expression system by active-site directed competition binding assay based Kinomescan method
[3] = Intrinsic clearance in human liver microsomes at 3 uM measured up to 50 mins by LC-MS analysis; assay type: ADME, Microsome; details: read-out: CLH
[4] = Stability in mouse plasma assessed as parent compound remaining level at 5 uM incubated for 1 hr by LC-MS analysis; assay type: ADME, cell-free; details: read-out: Stability
[5] = target: Serine/threonine-protein kinase pim-2 (Homo sapiens, UniProt Q9P1W9); experiment: Binding affinity to wild-type human partial length PIM2 (M1 to E291 residues) expressed in bacterial expression system assessed as residual binding level at 10 uM by active-site directed competition binding assay based Kinomescan method
[6] = target: T1, Mitogen-activated protein kinase kinase kinase 11; experiment: Binding affinity to wild-type human partial length MLK3 (I77 to W399 residues) expressed in bacterial expression system assessed as residual binding level at 10 uM by active-site directed competition binding assay based Kinomescan method relative to control
Aurora kinase B = Aurora kinase B (Homo sapiens, UniProt Q96GD4); experiment: Inhibition of Aurora B (unknown origin) assessed as residual enzyme activity at 50 uM by [33P]-ATP filter binding kinase assay relative to control
[7] = target: T2, Mitogen-activated protein kinase kinase kinase 7 (Homo sapiens) (UniProt O43318); experiment: Binding affinity to wild-type human partial length TAK1 (M1 to Q303 residues) expressed in mammalian expression system assessed as residual binding level at 10 uM by active-site directed competition binding assay based Kinomescan method relative to control
T2 sequence (whole entry): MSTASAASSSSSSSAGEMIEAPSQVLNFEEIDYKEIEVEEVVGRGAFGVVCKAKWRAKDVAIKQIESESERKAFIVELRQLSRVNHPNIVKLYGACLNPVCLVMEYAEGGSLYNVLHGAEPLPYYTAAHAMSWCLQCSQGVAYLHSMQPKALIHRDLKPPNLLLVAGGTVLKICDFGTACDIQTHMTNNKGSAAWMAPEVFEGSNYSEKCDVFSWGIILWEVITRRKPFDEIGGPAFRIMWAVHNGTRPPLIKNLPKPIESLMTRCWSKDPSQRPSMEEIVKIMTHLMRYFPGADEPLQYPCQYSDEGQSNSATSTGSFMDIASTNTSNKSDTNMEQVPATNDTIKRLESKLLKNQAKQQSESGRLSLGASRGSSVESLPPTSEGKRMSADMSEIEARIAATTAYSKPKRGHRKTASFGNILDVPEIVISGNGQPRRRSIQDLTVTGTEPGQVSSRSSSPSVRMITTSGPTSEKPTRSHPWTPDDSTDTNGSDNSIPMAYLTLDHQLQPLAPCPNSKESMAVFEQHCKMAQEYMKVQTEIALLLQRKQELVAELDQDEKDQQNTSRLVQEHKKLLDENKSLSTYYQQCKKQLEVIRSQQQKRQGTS

[8] = target: T3, Mitogen-activated protein kinase kinase kinase kinase 2 (Homo sapiens) (UniProt Q12851); experiment: Inhibition of GCK (unknown origin) assessed as residual enzyme activity at 50 uM by [33P]-ATP filter binding kinase assay relative to control
T3 sequence (whole entry): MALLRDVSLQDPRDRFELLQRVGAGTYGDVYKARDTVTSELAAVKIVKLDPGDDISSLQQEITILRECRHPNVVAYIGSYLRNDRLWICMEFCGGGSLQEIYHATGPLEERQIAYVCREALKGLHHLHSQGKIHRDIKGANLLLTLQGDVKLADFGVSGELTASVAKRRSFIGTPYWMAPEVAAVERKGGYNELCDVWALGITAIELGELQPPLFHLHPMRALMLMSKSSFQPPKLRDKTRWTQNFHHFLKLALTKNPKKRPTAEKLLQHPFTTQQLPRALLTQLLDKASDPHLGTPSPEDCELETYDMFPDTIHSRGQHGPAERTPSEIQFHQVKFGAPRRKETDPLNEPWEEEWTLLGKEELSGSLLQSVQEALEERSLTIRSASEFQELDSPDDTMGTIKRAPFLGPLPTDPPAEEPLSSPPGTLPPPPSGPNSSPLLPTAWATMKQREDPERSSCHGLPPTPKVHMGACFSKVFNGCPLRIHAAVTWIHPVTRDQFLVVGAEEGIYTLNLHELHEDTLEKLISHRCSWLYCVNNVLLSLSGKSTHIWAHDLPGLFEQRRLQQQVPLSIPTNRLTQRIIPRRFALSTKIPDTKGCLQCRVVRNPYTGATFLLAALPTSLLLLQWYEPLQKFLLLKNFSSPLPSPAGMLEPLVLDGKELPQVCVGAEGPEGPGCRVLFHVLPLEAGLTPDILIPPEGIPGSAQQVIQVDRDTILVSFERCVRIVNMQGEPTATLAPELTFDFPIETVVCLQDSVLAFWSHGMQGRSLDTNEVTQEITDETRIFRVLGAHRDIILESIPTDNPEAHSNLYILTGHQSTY

[9] = target: Serine/threonine-protein kinase pim-1 (Homo sapiens, UniProt P11309); experiment: Binding affinity to wild-type human partial length PIM1 (A15 to K313 residues) expressed in bacterial expression system by active-site directed competition binding assay based Kinomescan method
[10] = target: T2, Mitogen-activated protein kinase kinase kinase 7 (Homo sapiens); experiment: Inhibition of TAK1 (unknown origin) assessed as residual enzyme activity at 50 uM by [33P]-ATP filter binding kinase assay relative to control
JIMT-1 = experiment: Cytotoxicity in human JIMT1 cells assessed as reduction in cell viability incubated for 72 hrs by SRB assay; details: JIMT-1, 72 h
[11] = Toxicity in zebrafish embryos assessed as induction of tail degeneration by measuring unaffected embryos level at 1.4 uM after 72 hrs (reference value: 100%); assay type: tissue-based, Danio rerio; details: in vivo
[12] = Toxicity in zebrafish embryos assessed as induction of tail degeneration by measuring unaffected embryos level at 0.1 uM after 72 hrs (reference value: 100%); assay type: tissue-based, Danio rerio; details: in vivo
[13] = Toxicity in zebrafish embryos assessed as survival at 140 uM after 72 hrs (reference value: 95%); set-up: species or system Danio rerio; details: in vivo
[14] = Toxicity in zebrafish embryos assessed as survival at 1396 uM after 72 hrs (reference value: 95%); set-up: species or system Danio rerio; details: in vivo
[15] = target: AMP-activated protein kinase, AMPK (Homo sapiens) (UniProt P54646+O43741+P54619+Q9UGJ0+Q9Y478+Q13131+Q9UGI9); experiment: Inhibition of AMPK (unknown origin) assessed as residual enzyme activity at 50 uM by [33P]-ATP filter binding kinase assay relative to control; assay type: protein-complex assay
[16] = target: T1, Mitogen-activated protein kinase kinase kinase 11; experiment: Inhibition of MLK3 (unknown origin) assessed as residual enzyme activity at 5 uM by [33P]-ATP filter binding kinase assay relative to control
MCF7 = experiment: Cytotoxicity in human MCF7 cells assessed as reduction in cell viability by MTS assay; assay type: functional, cell-based; details: TDE = time-dependent effect

Structure (SMILES): COc1cc2c(-c3cnc(-c4ccc[nH]4)o3)c[nH]c2cc1Br
- Activity [1]: 20%
- Kd [2]: 1800 nM
- microsomal CLint at 3 µM [3]: 14 µL/min/mg
- remaining at 1 h, 5 µM [4]: 84%
- Activity [5]: 54%
- Activity [6]: 56%
- Activity (Aurora kinase B): 6%
- Activity [7]: 70%
- Activity [8]: 7%
- Kd [9]: 1200 nM
- Activity [10]: 7%
- IC50 (JIMT-1): 4170 nM
- Activity [11]: 100%
- Activity [12]: 100%
- survival at 72 h, 140 µM [13]: 0%
- survival at 72 h, 1396 µM [14]: 0%

- Activity [15]: 28%
Structure (SMILES): COc1cc(Br)cc2[nH]cc(-c3oc(-c4ccc[nH]4)nc3I)c12

- Activity [16]: 7%
Structure (SMILES): COc1cc(Br)cc2[nH]cc(-c3cnc(-c4ccc[nH]4)o3)c12
- Activity (MCF7): Tde

From ChEMBL document CHEMBL4334516, “Kinase Chemodiversity from the Arctic: The Breitfussins” (J Med Chem, 2019)
